Entries after “also recorded” stand apart in the source; their conditions may differ.

One assay relates to prostate cancer cells. Also noted: method as in PMID 21796654. The note with it: compound labeled ca27; cited from earlier work.
In assay [1] the test system is PC-3 cells. The experiment in a line: MTT cytotoxicity (cell viability) assay, PC-3. The class given is cell-based, human. The protocol:
Cell viability was determined by the MTT [3-(4,5-dimethylthiazol-2-yl)-2,5-diphenyltetrazolium bromide] assay, as previously described by Mosmann with modifications. Briefly, cells were detached from the tissue culture flask and pelleted by centrifugation at 1000 rpm for 5 min. Then, the density of the viable cells was counted using a haemocytometer. Cells were then plated in a 96-well flat bottom micro-titer plate (Nunc) at a concentration of 10^4 cells/mL and incubated in a 5% CO2 incubator at 37 °C overnight to allow the cells to adhere to the bottom of the wells. After 24 h, the media was aspirated off and replaced with fresh media containing sample compounds (curcumin and curcumin analogues) of seven different concentrations ranging from 1.56 µM–100 µM and incubated at 37 °C, 5% CO2 for 72 h. Separately, the sample compounds were prepared in a stock solution of 50 mM in 100% dimethyl sulfoxide (DMSO, Molecular Biology Grade, Sigma-Aldrich, St. Louis, MO, USA) and diluted in the culture media to a working concentration of 200 µM. Curcumin, the parent compound which was used as the positive control was also prepared in the similar manner. A two-fold serial dilution was done for each sample in triplicates down the columns of the plate, yielding a final volume and concentration of 100 µL in 0.2% DMSO in each wells. Following treatment, 50 µL MTT solutions (0.5 mg/mL in PBS) was added to each well and incubated for another 4 h at 37 °C in a humidified 5% CO2 incubator. The supernatant was replaced with 100 µL of DMSO and the optical density (OD) was measured at 570/650 nm using a micro-plate ELISA reader (Bio-Rad Laboratories, Hercules, CA, USA). The percentage of viable cells was calculated based on the ratio of the corrected absorbance of sample-treated cells to the corrected absorbance of the control (0.2% DMSO-treated cells) multiplied by 100. The percentage of cell viability was determined as follows: % Cell viability= OD of treated cells /OD of control ×100
For each compound tested, the EC50 value was generated from the log dose-response curves for each cell line using the Graphpad Prism version 5.04 for Windows (Graphpad Software, La Jolla, CA, USA). […] Cytotoxicity of each tested compound is expressed as the EC50 value. Based on the EC50 values, selectivity index (SX) value was also determined. Selectivity index is a special parameter applied as a selectivity indicator of tested compounds towards cancer cells. The SX represents the ratio of EC50 value obtained in toxicity testing using the normal cell lines to the EC50 values of the toxicity testing of the cancer cells, and then multiplied by 100. All the compounds were assessed for their potential toxicity against normal, non-cancerous cells. […] The SX values were calculated using the following equation: SX = EC50 (normal cells)/EC50 (cancer cells) × 100

Assay [2] relates to PC-3 cells. Put plainly: AO/EB double staining, morphology and quantification of apoptotic and necrotic cells, PC-3. The class given is cell-based, human. As for the experimental part:
(§1) Cell morphological changes were assessed by the differential staining DNA-intercalate fluorescent dyes acridine orange (AO) and ethidium bromide (EB). Cells (3 × 10^5) were seeded in a 6-well tissue culture plates, treated with MS17 at various concentrations (EC50, 2 × EC50, 3 × EC50) and incubated for 12, 24, 48 and 72 h time intervals. After incubation, cell pellets were suspended in 50 µL of cold PBS. To each samples, 10 µL of cell suspension was added with 1 µL of AO/EB dye mixture (1 part of 100 µg/mL of AO in PBS; 1 part of 100 µg/mL of EB in PBS) prior to microscopic examination. Ten microliter of the cell suspension mixed with the dye mixture was placed on a glass microscopic slide covered with a cover slip and was observed and photographed with a fluorescence microscope using a fluorescein filter (BX41, Olympus, Center Valley, PA, USA). A minimum of 200 total targeted cells were counted per sample and the percentage of cells from each population (viable, early apoptosis, late apoptosis and necrosis) was calculated. The experiment was conducted in triplicates. Untreated cells containing DMSO alone were used as negative control.

Assay [3] has as its system caspase-3 activity in PC-3 cells. The experiment in a line: Caspase-3 colorimetric activity assay, PC-3. The class given is cell-based, human. As for the experimental part: Caspase-3 activity was determined using the caspase-3 colorimetric assay kit (Sigma-Aldrich) according to manufacturer’s protocol. The assay is based on spectrophotometric detection of p-nitroanilide (pNA) a colored molecule, after its cleavage from the labeled substrate DEVD-pNA by the activity of caspase-3 enzyme. PC-3 and DU 145 cells were treated with MS17 at different concentrations (EC50, 2 × EC50, 3 × EC50) at various time points, 6, 12, 24, 48 and 72 h as appropriate. Following treatment, cells were washed with PBS and suspended with lysis buffer (50 mM HEPES, pH 7.4, 5 mM CHAPS, 5 mM DTT) for 30 min on ice at the concentration of 10^7 cells per 100 µL buffer. Cells were then spun for 30 min at 16,000× g, 4 °C. Protein lysate concentrations were measured based on the Bradford assay method using the Cayman Chemical protein determination kit (Cayman Chemical Company, Ann Arbor, MI, USA) based on the manufacturer’s protocol. Assay was performed on a 96-well micro-titer plate by adding equal amount of protein lysate (~100 µg) into wells containing the assay buffer (20 mM HEPES pH 7.4, 0.1% CHAPS, 5 mM DTT, 2 mM EDTA). Reaction was started by the addition of 10 µL of substrate Ac-DEVD-pNA (2 mM). The effect of Ac-DEVD-CHO, a caspase-3 inhibitor was also studied simultaneously on caspase-3 activity. Ten microliter of the inhibitor (200 µM) was added into the wells containing the protein lysate, assay buffer and the substrate. Caspase-3 activity was measured upon the release of pNA molecule, a pale yellow colored product using the micro-plate ELISA reader (Bio-Rad) at the wavelength of 405 nm. Relative caspase-3 activity was expressed as absorbance of enzyme activity compared with the control (untreated cells/DMSO only) based on the equation below: Relative caspase 3 activity= Absorbance of treated cells /Absorbance of control

The subject of a further assay is DU 145 cells. Put plainly: AO/EB double staining, morphology and quantification of apoptotic and necrotic cells, DU 145. The class given is cell-based, human. The note with it: for necrotic cells: approximate. As for the experimental part:
as §1

For the compound `O=C(C=Cc1ccccc1O)C=Cc1ccccc1O` [MS17, 1,5-bis(2-hydroxyphenyl)-1,4-pentadiene-3-one], the “growth inhibition of prostate cancer cells” value with prostate cancer cells was “able to inhibit the growth of prostate cancer cells at a concentration below that typically used for curcumin”. In the assay with PC-3 cells [1] (Homo sapiens, PC-3, MTT, 72 h treatment, mean ± SD, three experiments, read-out: EC50 Values (µM) of Compounds on Cell Lines PC-3), the EC50 was 4.4 ± 0.3 µM. Further, the “dose from which decrease in cell viability is significant” value with PC-3 cells [1] (PC-3, MTT, vs untreated) came to 3.1 µM. For the same compound, the “Selective index (SX) WI-38 vs PC-3” value in the assay with PC-3 cells [1] (SX = EC50 (WI-38)/EC50 (PC-3) × 100) is given as 117.4. Also, in the assay on PC-3 cells [1] (SX = EC50 (WRL68)/EC50 (PC-3) × 100), the “Selective index (SX) WRL68 vs PC-3” value is 124.9. The “morphological observation of cell nuclei (AO/EB)” value was “typical signs of apoptosis such as cell shrinkage, formation of apoptotic bodies and membrane blebbing” in the assay on PC-3 cells [2] (PC-3, MS17-treated vs untreated); “typical signs of apoptosis such as cell shrinkage, formation of apoptotic bodies and membrane blebbing” in the assay with DU 145 cells (DU 145, MS17-treated vs untreated). Moreover, the necrotic cells result with PC-3 cells [2] (PC-3, all three doses, 12 and 24 h) is “less than 5%”; in the assay on DU 145 cells (DU 145, 4.2 µM, 48 h), “approximately 10%”; in the assay with DU 145 cells (DU 145, all examined doses, 24 h), below 5%. The “relative caspase-3 activity (treated vs untreated)” value in assay [3] (PC-3, 4.5, 9.0 and 13.5 µM, 48 h) is on record as “increased significantly; also recorded: significant increase of caspase-3 activity”. Also, the “relative caspase-3 activity, differences between concentrations” value in assay [3] (PC-3, 12, 24 and 72 h) was “no significant differences of caspase-3 activity”.
